Results taken from PMC11334910, “Activity-Based Protein Profiling of RHBDL4 Reveals Proteolysis of the Enzyme and a Distinct Inhibitor Profile” (ACS Chemical Biology, 2024).
Like-named read-outs stand apart in the source and are kept apart here.

Columns and labels:
[1] = molecular target: T1, human RHBDL4 (hRHBDL4) (Homo sapiens, UniProt Q8TEB9); assay: competitive ABPP with FP-Rh, dose-response; assay type: biochemical; design: gene RHBDD1
T1 sequence (Q8TEB9 1-315): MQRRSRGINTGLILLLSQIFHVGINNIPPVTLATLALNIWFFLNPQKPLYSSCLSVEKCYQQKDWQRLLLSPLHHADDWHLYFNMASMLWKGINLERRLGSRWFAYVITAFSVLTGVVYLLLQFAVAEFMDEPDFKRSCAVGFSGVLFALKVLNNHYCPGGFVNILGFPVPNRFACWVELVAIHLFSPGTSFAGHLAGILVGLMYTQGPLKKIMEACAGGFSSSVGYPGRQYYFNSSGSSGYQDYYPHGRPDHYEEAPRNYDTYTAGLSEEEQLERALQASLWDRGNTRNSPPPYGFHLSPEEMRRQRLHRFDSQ

[2] = molecular target: T2, hPARL (presenilin-associated rhomboid-like protein, mitochondrial) (Homo sapiens, UniProt Q9H300); assay: competitive ABPP, dose-response; assay type: biochemical
T2 construct: gene PARL; hPARL in HEK293T membrane proteome

[3] = molecular target: T1, human RHBDL4 (hRHBDL4); assay: competitive ABPP with FP-Rh at […]; assay type: biochemical; design: gene RHBDD1; hRHBDL4 in HEK293T membrane proteome
[4] = molecular target: T2, hPARL (presenilin-associated rhomboid-like protein, mitochondrial); assay: competitive ABPP, dose-response; assay type: cell-based

T2 sequence (Q9H300 53-379): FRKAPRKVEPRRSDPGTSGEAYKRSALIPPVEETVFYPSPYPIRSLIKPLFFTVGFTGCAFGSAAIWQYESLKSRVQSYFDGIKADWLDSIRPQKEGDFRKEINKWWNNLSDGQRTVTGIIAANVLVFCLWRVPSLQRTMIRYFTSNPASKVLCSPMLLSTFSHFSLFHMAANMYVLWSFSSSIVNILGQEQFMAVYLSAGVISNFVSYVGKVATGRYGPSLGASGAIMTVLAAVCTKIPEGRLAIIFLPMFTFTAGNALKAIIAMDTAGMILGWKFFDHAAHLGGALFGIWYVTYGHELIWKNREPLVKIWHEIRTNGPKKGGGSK

O=c1oc(Cl)c(Cl)c2ccccc12 [3,4-DCI]
IC50 [1]: 1.1 µM
IC50 [2]: 25 µM

O=C(OCN1C(=O)c2ccccc2S1(=O)=O)c1ccccc1Cl [BSc5195]
competitive ABPP with FP-Rh at 100 μM [3]: nearly complete competition at 100

O=C1CCC(=O)N1S(=O)(=O)c1ccccc1 [WHP3A]
IC50 [4]: low micromolar
